Square brackets hold non-standard residues; d marks the D form. Ends that are not written are not given here.
Legend:
[1] = test system: gel-filtered human platelets; assay: Platelet aggregation, turbidometric; assay type: cell-based; conditions: gel-filtered human platelets
Description: Platelet-rich plasma, prepared from human blood anti-coagulated with 0.1 volume of 0.13 M sodium citrate, was gel-filtered on Sepharose 2B (Amersham Biosciences, Piscataway, N.J.) using an elution buffer containing 137 mM NaCl, 2.7 mM KCl, 1 mM MgCl2, 5.6 mM glucose, 0.35 mg/ml bovine serum albumin, 3.3 mM NaH2PO4, and 4 mM HEPES (pH=7.4), as previously described. Jordan P et al. Nature 411, 909-917 (2001). Turbidometric measurements of platelet aggregation were performed in a Chrono-Log Lumi-Dual Aggregometer. Aliquots (0.4 ml) of the gel-filtered platelet suspension were supplemented with 200 μg/ml human fibrinogen (Enzyme Research Labs., South Bend, Ind.) and 1 mM CaCl2 (final concentrations) prior to adding platelet agonists. The polypeptide was added from a DMSO solution such that the final concentration of DMSO was no greater than 0.5%. All controls also had 0.5% DMSO in the buffer.

[2] = target: T1, full-length αIIbβ3 integrin (Homo sapiens, UniProt P08514); assay: Fluorescence anisotropy titration with full-length integrin; assay type: binding; conditions: N-octyl-β-D-glucopyranoside micelles, 64 nM labelled peptide, 25° C.
T1 construct: The full-length integrin aIIbβ3 protein in buffer
Description: The full-length integrin aIIbβ3 protein in buffer (7.9 mg/ml, 10 mM HEPES (pH=7.5), 60 mM N-octyl-β-D-glucopyranoside, 0.5 mM CaCl2, 0.02% NaN3) was prepared using the previously reported method. Weisel J W et al. J. Biol. Chem. 267, 16637-16643 (1992). Fluorescence polarization experiments were conducted on an ATF 105 spectrofluorometer (Aviv Biomedical, Inc., Lakewood, N.J.) using a 0.3 cm path length cuvette. Spectra were measured at 25° C. using 1.0 nm slit widths. Excitation at 408 nm was used for the coumarin-labeled polypeptide and the emission maximum at 433 nm was monitored. Anisotropy measurements were recorded upon titration of the integrin αIIbβ3 protein at varying concentrations into a polypeptide solution of 64 nM coum-anti-αIIb or coum-anti-αIIbmut. Data analysis was carried out according to previously described methods. See Yin H et al. J. Am. Chem. Soc. 127, 10191-96 (2005).

[3] = test system: gel-filtered human platelets; conditions: cited from earlier work

Substance | platelet aggregation response [1] | other results
KKIFGVLTFLFGYILGALITGAVYWFVQLLAKK [anti-αIIb′] | highly active | 
RAWFALFLLIFLGFLLGVATLLVQY ([dR][dA][dW][dF][dA][dL][dF][dL][dL][dI][dF][dL]G[dF][dL][dL]G[dV][dA][dT][dL][dL][dV][dQ][dY]) [d-anti-αIIb] | aggregation of gel-filtered human platelets was induced by increasing concentrations | 
coum-anti-αIIb: 7-hydroxycoumarin-3-carboxamide-labeled anti-αIIb, label attached via a linker to the N-terminus (KKAYVMLLPFFIGLLLGLIFGGAFWGPARHLKK; not fully specified (N-terminus, C-terminus); also: label attached via an unspecified linker) |  | apparent Kdiss for αIIbβ3 [2]: 1.3±0.2×10^−5 mole fraction units
αIIb-TM: polypeptide spanning residues Trp968 to Lys989 of αIIb (WVLVGVLGGLLLLTILVLAMWK) |  | potency as activator of αIIbβ3 / inducer of platelet aggregation relative to anti-αIIb [3]: substantially less potent

Reference: US8349791B2, “Polypeptides that bind membrane proteins” (The Trustees of the University of Pennsylvania, priority 2006, dated 2013)
